In patent US20250034147A1, “MDM2 DEGRADERS AND USES THEREOF” (Kymera Therapeutics, Inc., priority 2021, published 2025):
Blank lines part the entries; values can stand above or below the compound they belong to.

Experiments:
[1] = target: T1, HiBiT-tagged MDM2 (Homo sapiens, UniProt Q00987); assay: MDM2 HiBit HEK293T degradation; type: cell-based; conditions: HEK293T cells stably expressing C-terminally HiBiT-tagged MDM2; 4 h; read-out: MDM2 HiBit HEK293T degradation 4 h: Average external-Abs DC50
T1 construct: expressed in transfected cells
Method in brief: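 Degradation was measured in HEK293T cells stably expressing C-terminally HiBiT-tagged MDM2, a pool selected with 1 microgram/ml puromycin. A MDM2 tool degrader and HaloPROTAC3 served as positive controls. Potency is reported as DC50 in letter bins.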

[2] = test system: RS411 cells; assay: Cell Viability CTG Assay; type: cell-based; conditions: Homo sapiens, RS4-11, CellTiter Glo (CTG) cell viability, read-out: Average external-IC50
Method: Compounds or DMSO 60 nL were stamped to the cell plate as the platemap. RS411 cells were centrifuged at 800 rpm for 5 min, suspended with culture medium, and counted with Countess (Invitrogen). The cell density was adjusted to the recommend information. 30 μL of cell solution (1000 cells/well) was added to the assay plate as the platemap and 30 μL of media was added to column 2 and column 23 as the platemap. The plate was spun down briefly. The final concentration of the compounds started at 10 μM (3 fold dilution and 11 doses) and final DMSO concentration was 0.2%. The plate was spun down briefly and incubated at 37° C., 5% CO2 for 1 day. […] 30 μL CellTiter Glo reagent was added to each well and the plate was centrifuged at 1000 rpm for 30 sec. The plate was shaken for 1 min and centrifuged at 1000 rpm for 30 sec. The plate was incubated at RT for 10 min to stabilize the luminescent signal and the luminescence was read by EnVision.
The letter codes for IC50 indicate the concentration of compound required to affect 50% of cells: A (<0.005 μM), B (0.005-0.05 μM), C (0.05-0.5 μM), and D (>0.5 μM).

T1 sequence (Q00987 whole entry): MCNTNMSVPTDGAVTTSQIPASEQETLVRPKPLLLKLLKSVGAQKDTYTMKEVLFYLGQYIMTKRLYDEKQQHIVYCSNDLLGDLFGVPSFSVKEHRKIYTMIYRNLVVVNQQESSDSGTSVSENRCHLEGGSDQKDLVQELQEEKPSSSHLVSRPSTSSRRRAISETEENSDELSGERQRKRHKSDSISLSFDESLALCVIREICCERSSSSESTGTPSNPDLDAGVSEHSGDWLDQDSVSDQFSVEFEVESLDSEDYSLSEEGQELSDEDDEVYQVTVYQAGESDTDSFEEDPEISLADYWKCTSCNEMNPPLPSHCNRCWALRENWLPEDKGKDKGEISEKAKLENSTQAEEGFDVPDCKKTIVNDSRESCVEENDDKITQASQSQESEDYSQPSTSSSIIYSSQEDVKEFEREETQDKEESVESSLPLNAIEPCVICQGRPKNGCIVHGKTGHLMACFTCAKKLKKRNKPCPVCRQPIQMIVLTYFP

SMILES: Cn1c(=O)n(C2CCC(=O)NC2=O)c2ccc(C3CCN(C(=O)CN4CCC(NC(=O)[C@@H]5NC6(CCCCC6)[C@@]6(C(=O)Nc7cc(Cl)ccc76)[C@H]5c5cccc(Cl)c5F)CC4)CC3)cc21 (some centres unmarked) [I-27]
DC50 [1]: < 10 nM
IC50 [2]: < 5 nM

SMILES: CN1[C@@H](C(=O)Nc2ccc(CN3CCC(c4ccc5c(c4)n(C)c(=O)n5C4CCC(=O)NC4=O)CC3)cc2)[C@H](c2cccc(Cl)c2F)[C@]2(C(=O)Nc3cc(Cl)ccc32)C12CCCCC2 (some centres unmarked) [I-28]
DC50 [1]: < 10 nM
IC50 [2]: < 5 nM

SMILES: Cn1c(=O)n(C2CCC(=O)NC2=O)c2ccc(C3CCN(C(=O)CCCN4CCC(NC(=O)[C@@H]5NC6(CCCCC6)[C@@]6(C(=O)Nc7cc(Cl)ccc76)[C@H]5c5cccc(Cl)c5F)CC4)CC3)cc21 (some centres unmarked) [I-29]
DC50 [1]: 10 to 100 nM
IC50 [2]: 5 to 50 nM

SMILES: Cn1c(=O)n(C2CCC(=O)NC2=O)c2ccc(CCCN3CCN(C(=O)[C@H]4CC[C@H](NC(=O)[C@@H]5NC6(CCCCC6)[C@@]6(C(=O)Nc7cc(Cl)ccc76)[C@H]5c5cccc(Cl)c5F)CC4)CC3)cc21 (some centres unmarked) [I-30]
DC50 [1]: < 10 nM
IC50 [2]: < 5 nM

SMILES: Cn1c(=O)n(C2CCC(=O)NC2=O)c2ccc(CCN3CCN(C(=O)CN4CCC(NC(=O)[C@@H]5NC6(CCC(C)(C)CC6)[C@@]6(C(=O)Nc7cc(Cl)ccc76)[C@H]5c5ccnc(Cl)c5F)CC4)CC3)cc21 (stereo partly drawn) [I-32, (3′R,4′S,5′R)-6″-chloro-4′-(2-chloro-3-fluoropyridin-4-yl)-N-(1-(2-(4-(2-(1-(2,6-dioxopiperidin-3-yl)-3-methyl-2-oxo-2,3-dihydro-1H-benzo[d]imidazol-5-yl)ethyl)piperazin-1-yl)-2-oxoethyl)piperidin-4-yl)-4,4-dimethyl-2″-oxodispiro[cyclohexane-1,2′-pyrrolidine-3′,3″-indoline]-5′-carboxamide]
DC50 [1]: < 10 nM
IC50 [2]: < 5 nM

SMILES: Cn1c(=O)n(C2CCC(=O)NC2=O)c2ccc(C3CN(Cc4ccc(NC(=O)[C@@H]5NC6(CCCCC6)[C@@]6(C(=O)Nc7cc(Cl)ccc76)[C@H]5c5cccc(Cl)c5F)cc4)C3)cc21 (some centres unmarked) [I-34]
DC50 [1]: < 10 nM
IC50 [2]: 50 to 500 nM

SMILES: O=C1CCC(n2c(=O)n(CP(=O)(O)O)c3cc(C4CCN(C(=O)[C@H]5CC[C@H](NC(=O)[C@@H]6NC7(CCCCC7)[C@@]7(C(=O)Nc8cc(Cl)ccc87)[C@H]6c6cccc(Cl)c6F)CC5)CC4)ccc32)C(=O)N1 (some centres unmarked) [I-35]
DC50 [1]: 100 to 1000 nM
IC50 [2]: 50 to 500 nM

SMILES: Cn1c(=O)n(C2CCC(=O)NC2=O)c2ccc(C3CCN(C(=O)[C@@H]4CC[C@@H](NC(=O)[C@@H]5NC6(CCCCC6)[C@@]6(C(=O)Nc7cc(Cl)ccc76)[C@H]5c5cccc(Cl)c5F)CO4)CC3)cc21 (some centres unmarked) [I-37]
DC50 [1]: < 10 nM
IC50 [2]: < 5 nM

SMILES: Cn1c(=O)n(C2CCC(=O)NC2=O)c2ccc(CCCC3(C(=O)O)CCN(C[C@H]4CC[C@H](NC(=O)[C@@H]5NC6(CCCCC6)[C@@]6(C(=O)Nc7cc(Cl)ccc76)[C@H]5c5cccc(Cl)c5F)CC4)CC3)cc21 (some centres unmarked) [I-38]
DC50 [1]: < 10 nM
IC50 [2]: 5 to 50 nM

SMILES: Cn1c(=O)n(C2CCC(=O)NC2=O)c2ccc(C3CCN(CCCN4CCC(NC(=O)[C@@H]5NC6(CCCCC6)[C@@]6(C(=O)Nc7cc(Cl)ccc76)[C@H]5c5cccc(Cl)c5F)CC4)CC3)cc21 (some centres unmarked) [I-39]
DC50 [1]: < 10 nM
IC50 [2]: 5 to 50 nM

SMILES: O=C1CCC(n2c(=O)n(CCP(=O)(O)O)c3cc(C4CCN(C(=O)[C@H]5CC[C@H](NC(=O)[C@@H]6NC7(CCCCC7)[C@@]7(C(=O)Nc8cc(Cl)ccc87)[C@H]6c6cccc(Cl)c6F)CC5)CC4)ccc32)C(=O)N1 (some centres unmarked) [I-40]
DC50 [1]: 10 to 100 nM
IC50 [2]: 50 to 500 nM

SMILES: Cn1c(=O)n(C2CCC(=O)NC2=O)c2ccc(CCN3CCN(C(=O)[C@@H]4CC[C@@H](NC(=O)[C@@H]5NC6(CCCCC6)[C@@]6(C(=O)Nc7cc(Cl)ccc76)[C@H]5c5cccc(Cl)c5F)CO4)CC3)cc21 (some centres unmarked) [I-41]
DC50 [1]: < 10 nM
IC50 [2]: < 5 nM

SMILES: O=C1CCN(c2cnc3cc(C4CCN(C(=O)[C@H]5CC[C@H](NC(=O)[C@@H]6NC7(CCCCC7)[C@@]7(C(=O)Nc8cc(Cl)ccc87)[C@H]6c6cccc(Cl)c6F)CC5)CC4)ccn23)C(=O)N1 [I-42]
DC50 [1]: < 10 nM
IC50 [2]: < 5 nM

SMILES: CN1[C@@H](C(=O)N[C@H]2CC[C@H](CN3CCC4(CC3)CN(CCc3ccc5c(c3)n(C)c(=O)n5C3CCC(=O)NC3=O)C4)CC2)[C@H](c2ccnc(Cl)c2F)[C@]2(C(=O)Nc3cc(Cl)ccc32)C12CCC(C)(C)CC2 (some centres unmarked) [I-43]
DC50 [1]: < 10 nM
IC50 [2]: < 5 nM

Continued, values first:

DC50 [1]: 10 to 100 nM
IC50 [2]: < 5 nM
SMILES: Cn1c(=O)n(C2CCC(=O)NC2=O)c2ccc(C#CCC3(C(=O)O)CCN(C(=O)[C@H]4CC[C@H](NC(=O)[C@@H]5NC6(CCCCC6)[C@@]6(C(=O)Nc7cc(Cl)ccc76)[C@H]5c5cccc(Cl)c5F)CC4)CC3)cc21 (some centres unmarked) [I-44]

DC50 [1]: < 10 nM
IC50 [2]: 5 to 50 nM
SMILES: O=C1CCN(c2cnc3c(C4CCN(C(=O)[C@H]5CC[C@H](NC(=O)[C@@H]6NC7(CCCCC7)[C@@]7(C(=O)Nc8cc(Cl)ccc87)[C@H]6c6cccc(Cl)c6F)CC5)CC4)cccn23)C(=O)N1 [I-45]

DC50 [1]: < 10 nM
IC50 [2]: 5 to 50 nM
SMILES: Cn1c(=O)n(C2CCC(=O)NC2=O)c2ccc(C#CC3CCN(C[C@H]4CC[C@H](NC(=O)[C@@H]5NC6(CCCCC6)[C@@]6(C(=O)Nc7cc(Cl)ccc76)[C@H]5c5cccc(Cl)c5F)CC4)C(=O)C3)cc21 (some centres unmarked) [I-46]

DC50 [1]: < 10 nM
IC50 [2]: < 5 nM
SMILES: Cn1c(=O)n(C2CCC(=O)NC2=O)c2ccc(CN3CC(OC4CCN(C[C@H]5CC[C@H](NC(=O)[C@@H]6NC7(CCCCC7)[C@@]7(C(=O)Nc8cc(Cl)ccc87)[C@H]6c6cccc(Cl)c6F)CC5)CC4)C3)cc21 (stereo partly drawn) [I-47, (3′R,4′S,5′S)-6″-chloro-4′-(3-chloro-2-fluorophenyl)-N-((1r,4S)-4-((4-((1-((1-(2,6-dioxopiperidin-3-yl)-3-methyl-2-oxo-2,3-dihydro-1H-benzo[d]imidazol-5-yl)methyl)azetidin-3-yl)oxy)piperidin-1-yl)methyl)cyclohexyl)-2″-oxodispiro[cyclohexane-1,2′-pyrrolidine-3′,3″-indoline]-5′-carboxamide]

DC50 [1]: > 1000 nM
IC50 [2]: > 500 nM
SMILES: COc1cc2c(cc1OC(C)C)[C@H](c1ccc(Cl)cc1)N(c1ccc(N(C)CC(=O)N3CCN(CCCCCCc4ccc5c(c4)n(C)c(=O)n5C4CCC(=O)NC4=O)CC3)cc1)C(=O)C2 (some centres unmarked) [I-48]

DC50 [1]: < 10 nM
IC50 [2]: 5 to 50 nM
SMILES: Cn1c(=O)n(C2CCC(=O)NC2=O)c2ccc(CN3CCC(OC4CN(C[C@H]5CC[C@H](NC(=O)[C@@H]6NC7(CCCCC7)[C@@]7(C(=O)Nc8cc(Cl)ccc87)[C@H]6c6cccc(Cl)c6F)CC5)C4)CC3)cc21 (some centres unmarked) [I-49]

DC50 [1]: < 10 nM
IC50 [2]: 5 to 50 nM
SMILES: CC1(C)CCC2(CC1)NC(C(=O)NC1CCC(CN3CCN(CC#Cc4ccn5c(N6CCC(=O)NC6=O)cnc5c4)CC3)CC1)[C@H](c1ccnc(Cl)c1F)[C@]21C(=O)Nc2cc(Cl)ccc21 (some centres unmarked) [I-50]

DC50 [1]: 10 to 100 nM
IC50 [2]: 50 to 500 nM
SMILES: COc1cc2c(cc1OC(C)C)[C@H](c1ccc(Cl)cc1)N(c1ccc(N(C)CCC3CCN(CCCCC#Cc4ccn5c(N6CCC(=O)NC6=O)cnc5c4)CC3)cc1)C(=O)C2 [I-51]

DC50 [1]: < 10 nM
IC50 [2]: < 5 nM
SMILES: Cn1c(=O)n(C2CCC(=O)NC2=O)c2ccc(C3CCN(C[C@H]4CC[C@H](NC(=O)[C@@H]5NC6(CCCCC6)[C@@]6(C(=O)Nc7cc(Cl)ccc76)[C@H]5c5cccc(Cl)c5F)CC4)CC3(F)F)cc21 (some centres unmarked) [I-52]

DC50 [1]: 10 to 100 nM
IC50 [2]: < 5 nM
SMILES: COc1cc2c(cc1OC(C)C)[C@H](c1ccc(Cl)cc1)N(c1ccc(N(C)CC3CCN(CCCc4ccc5c(c4)n(C)c(=O)n5C4CCC(=O)NC4=O)CC3)cc1)C(=O)C2 (some centres unmarked) [I-53]

DC50 [1]: < 10 nM
IC50 [2]: 5 to 50 nM
SMILES: Cn1c(=O)n(C2CCC(=O)NC2=O)c2ccc(CCCN3CCN(C[C@H]4CC[C@H](NC(=O)[C@@H]5NC6(CCCCC6)[C@@]6(C(=O)Nc7cc(Cl)ccc76)[C@H]5c5cccc(Cl)c5F)CC4)C(=O)C3)cc21 (some centres unmarked) [I-54]

DC50 [1]: 10 to 100 nM
IC50 [2]: > 500 nM
SMILES: Cc1ccc2c(c1)NC(=O)[C@]21[C@@H](c2cccc(C)c2F)[C@H](C(=O)N[C@H]2CC[C@H](C(=O)N3CCN(CCCc4ccc5c(c4)n(C)c(=O)n5C4CCC(=O)NC4=O)CC3)CC2)NC12CCCCC2 (some centres unmarked) [I-55]

DC50 [1]: < 10 nM
IC50 [2]: < 5 nM
SMILES: Cn1c(=O)n(C2CCC(=O)NC2=O)c2ccc(CCCN3CCN(C[C@H]4CC[C@H](NC(=O)[C@@H]5NC6(CCC(C)(C)CC6)[C@@]6(C(=O)Nc7cc(Cl)ccc76)[C@H]5c5ccnc(Cl)c5F)CC4)C(=O)C3)cc21 (some centres unmarked) [I-56]

DC50 [1]: < 10 nM
IC50 [2]: < 5 nM
SMILES: Cc1ccc2c(c1)NC(=O)[C@]21[C@@H](c2cccc(Cl)c2F)[C@H](C(=O)N[C@H]2CC[C@H](C(=O)N3CCN(CCCc4ccc5c(c4)n(C)c(=O)n5C4CCC(=O)NC4=O)CC3)CC2)NC12CCCCC2 (some centres unmarked) [I-57]
